Laboratory results published in ChEMBL document CHEMBL1201862, “PubChem BioAssay data set” (2004).
pEC50: −log10 of the molar value. The source made the active and inactive calls.

Assays:
Estrogen receptor beta = Estrogen receptor beta (Homo sapiens, UniProt Q92731);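 further: recombinant ER-beta bound to coactivator SRC1 peptide in presence of estradiol agonist; inhibitors block coactivator peptide binding and lower the FRET signal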
BJ [1] = test: cytotoxicity toward BJ-TERT-LT-ST fibroblasts, dose response, cell-based, RAS-independent, luminescence (AID 1935); assay type: functional; conditions: Homo sapiens;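 further: BJ fibroblasts immortalized with TERT plus LT and ST oncogenes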
[2] = cytotoxicity toward DRD oncogenic fibroblasts, dose response, cell-based, non-viral oncogenic, luminescence (AID 1934); assay type: functional; conditions: Homo sapiens
BJ [3] = test: cells; assay type: functional, cell-based; conditions: Homo sapiens
[4] = target: Polyadenylate-binding protein 1 (Homo sapiens, UniProt P11940); test: PABP poly(A) RNA binding inhibitors, primary screen, biochemical, fluorescence polarization, uHTS (AID 2014)
Sequence of Polyadenylate-binding protein 1 (P11940 whole entry): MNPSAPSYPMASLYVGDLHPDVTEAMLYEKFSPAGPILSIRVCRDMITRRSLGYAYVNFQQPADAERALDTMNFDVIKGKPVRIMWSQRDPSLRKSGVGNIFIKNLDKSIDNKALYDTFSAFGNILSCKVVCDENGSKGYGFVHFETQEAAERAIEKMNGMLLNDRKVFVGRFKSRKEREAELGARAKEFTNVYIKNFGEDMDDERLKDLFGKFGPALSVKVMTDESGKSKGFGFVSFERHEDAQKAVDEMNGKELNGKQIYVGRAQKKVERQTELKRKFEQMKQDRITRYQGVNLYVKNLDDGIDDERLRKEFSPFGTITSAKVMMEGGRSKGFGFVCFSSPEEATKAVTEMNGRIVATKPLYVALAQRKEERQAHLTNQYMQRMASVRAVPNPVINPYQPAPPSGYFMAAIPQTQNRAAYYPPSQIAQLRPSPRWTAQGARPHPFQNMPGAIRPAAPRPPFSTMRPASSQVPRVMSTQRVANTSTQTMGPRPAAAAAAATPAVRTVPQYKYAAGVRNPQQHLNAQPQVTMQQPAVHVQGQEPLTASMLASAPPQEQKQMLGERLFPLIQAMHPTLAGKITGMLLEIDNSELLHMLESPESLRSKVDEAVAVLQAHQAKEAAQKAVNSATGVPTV

[5] = target: Eukaryotic translation initiation factor 4H (Homo sapiens, UniProt Q15056); test: human eIF4H binding inhibitors, primary screen, translation initiation inhibitor project, biochemical, uHTS, fluorescence polarization (AID 2012)
BJ [6] = test: cytotoxicity toward BJ-TERT fibroblasts, dose response, cell-based, RAS-independent, luminescence (AID 1933); assay type: functional; conditions: Homo sapiens
Estrogen receptor = Estrogen receptor (Homo sapiens, UniProt P03372);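 further: potency for inhibiting coactivator peptide recruitment to the receptor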
Sequence of Estrogen receptor (P03372 whole entry): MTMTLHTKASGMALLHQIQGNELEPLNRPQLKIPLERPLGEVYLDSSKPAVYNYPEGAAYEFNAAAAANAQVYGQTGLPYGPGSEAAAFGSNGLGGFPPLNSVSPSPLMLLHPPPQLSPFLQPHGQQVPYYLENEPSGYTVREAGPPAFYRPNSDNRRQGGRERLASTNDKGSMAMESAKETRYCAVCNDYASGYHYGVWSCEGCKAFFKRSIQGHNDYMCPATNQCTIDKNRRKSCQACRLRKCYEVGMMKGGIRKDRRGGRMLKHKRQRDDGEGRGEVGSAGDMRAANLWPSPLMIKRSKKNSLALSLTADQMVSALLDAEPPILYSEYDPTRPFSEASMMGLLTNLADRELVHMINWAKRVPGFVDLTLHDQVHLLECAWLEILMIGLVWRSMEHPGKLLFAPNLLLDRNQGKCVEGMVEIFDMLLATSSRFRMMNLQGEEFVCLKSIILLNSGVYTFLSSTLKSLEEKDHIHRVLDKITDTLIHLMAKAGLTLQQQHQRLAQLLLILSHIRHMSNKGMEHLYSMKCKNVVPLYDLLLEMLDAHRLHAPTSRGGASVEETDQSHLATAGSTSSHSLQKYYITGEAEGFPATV

[7] = cytotoxicity in HEK-293T cells, dose response, cytotoxicity control for TCR NF-kB inhibitor project, luminescence, T-cell screen hits (AID 489026); assay type: functional, cell-based;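 further: cells exposed to compound about 14 hours before the viability readout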
[8] = target: T1, Kappa-type opioid receptor (Homo sapiens, UniProt P41145); test: KOR agonist analogs, imaging readout, SAR follow-up, image-based (AID 2359); assay type: functional
T1 sequence (P41145 whole entry): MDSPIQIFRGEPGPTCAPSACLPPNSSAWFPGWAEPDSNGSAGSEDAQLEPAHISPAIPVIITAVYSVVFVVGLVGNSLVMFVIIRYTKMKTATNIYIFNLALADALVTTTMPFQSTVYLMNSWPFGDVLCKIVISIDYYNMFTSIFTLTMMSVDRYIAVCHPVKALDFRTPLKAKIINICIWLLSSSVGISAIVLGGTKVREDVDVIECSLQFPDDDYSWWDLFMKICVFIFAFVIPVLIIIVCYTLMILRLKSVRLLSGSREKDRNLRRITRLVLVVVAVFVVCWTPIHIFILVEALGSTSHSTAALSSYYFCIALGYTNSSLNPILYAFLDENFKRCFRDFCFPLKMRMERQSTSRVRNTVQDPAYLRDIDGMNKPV

[9] = target: T2, Delta-type opioid receptor (Homo sapiens, UniProt P41143); test: DOR agonists, SAR follow-up, image-based (AID 2370); assay type: functional
T2 sequence (P41143 whole entry): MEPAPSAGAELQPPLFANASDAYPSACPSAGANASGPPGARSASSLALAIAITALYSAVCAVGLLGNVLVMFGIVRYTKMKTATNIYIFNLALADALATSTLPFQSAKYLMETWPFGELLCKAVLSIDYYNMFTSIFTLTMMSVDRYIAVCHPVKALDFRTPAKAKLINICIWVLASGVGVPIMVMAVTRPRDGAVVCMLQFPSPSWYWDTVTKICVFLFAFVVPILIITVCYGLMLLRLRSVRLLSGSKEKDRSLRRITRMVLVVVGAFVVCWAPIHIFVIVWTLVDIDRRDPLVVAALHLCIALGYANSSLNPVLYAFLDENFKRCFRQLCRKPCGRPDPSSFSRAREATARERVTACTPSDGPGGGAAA

[10] = target: T2, Delta-type opioid receptor; test: HTS Image-Based Screen for Antagonists of the DOR Receptor. [Related pubchem assays (depositor defined):AID1777, AID1785, AID1786, AID2133]; assay type: functional
[11] = target: T2, Delta-type opioid receptor; test: HTS Image-Based Screen for Agonists of the DOR Receptor. [Related pubchem assays (depositor defined):AID1777, AID1786, AID2133]; assay type: functional
Mu-type opioid receptor [12] = target: T3, Mu-type opioid receptor (Homo sapiens, UniProt P35372); test: MOR antagonists, SAR follow-up, image-based (AID 2420); assay type: functional;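 further: compounds added before stimulation of receptor with agonist DAMGO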
T3 sequence (P35372 whole entry): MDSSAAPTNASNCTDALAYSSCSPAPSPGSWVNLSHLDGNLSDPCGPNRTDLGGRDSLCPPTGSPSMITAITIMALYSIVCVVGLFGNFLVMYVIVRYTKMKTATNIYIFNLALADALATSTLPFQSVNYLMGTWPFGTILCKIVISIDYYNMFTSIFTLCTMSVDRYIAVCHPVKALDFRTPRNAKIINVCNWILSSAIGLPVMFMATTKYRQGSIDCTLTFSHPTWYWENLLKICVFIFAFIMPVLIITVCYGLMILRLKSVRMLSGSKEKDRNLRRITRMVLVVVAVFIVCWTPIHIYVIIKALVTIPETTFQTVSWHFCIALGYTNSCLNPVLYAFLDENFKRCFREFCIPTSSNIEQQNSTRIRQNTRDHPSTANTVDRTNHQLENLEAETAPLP

[13] = target: T2, Delta-type opioid receptor; test: DOR antagonists, SAR follow-up, image-based (AID 2357); assay type: functional
[14] = target: T1, Kappa-type opioid receptor; test: KOR antagonists by imaging, SAR follow-up, image-based (AID 2348); assay type: functional
[15] = target: T1, Kappa-type opioid receptor; test: SAR analysis of small molecule agonists of the kappa opioid receptor via a luminescent beta-arrestin assay. [Related pubchem assays (depositor defined):AID1777, AID1786, AID1966, AID2133, AID2136, AID2348, AID2352, AID2357, AID2359, AID2370, AID2420, AID2478, AID2491, AID2492, AID2493, AID2497, AID2498, AID2500, AID449737, AID488822, AID488842]; assay type: functional
[16] = target: T1, Kappa-type opioid receptor; assay type: functional
Mu-type opioid receptor [17] = target: T3, Mu-type opioid receptor; test: HTS Image-Based Screen for Agonists of the MOR Receptor. [Related pubchem assays (depositor defined):AID1777, AID1785, AID1786, AID2133]; assay type: functional
Mu-type opioid receptor [18] = target: T3, Mu-type opioid receptor; test: MOR agonists by imaging, SAR follow-up, image-based (AID 2352); assay type: functional
[19] = target: T1, Kappa-type opioid receptor; assay type: functional; remark: listed apart in the source
[20] = Luminescence Cell-Based Dose Response HTS to Identify Inhibitors of 5'UTR Stem-Loop Driven Prion Protein mRNA Translation in H4 Neuroglioblastoma Cells. [Related pubchem assays: 1827 (Project Summary), 1813 (Primary HTS)]; assay type: functional
[21] = inhibitors of SNCA 5'UTR-driven reporter translation, confirmation, H4 neuroglioma cells, luminescence (AID 1988); assay type: functional, cell-based
[22] = cytotoxicity in HEK-293T cells, dose response, cytotoxicity control for BCR NF-kB inhibitor project, luminescence, B-cell screen hits (AID 489021); assay type: functional, cell-based;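 further: HEK-293T cells carrying an NF-kB luciferase reporter; cells exposed to compound for about 14 hours before viability readout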
[23] = inhibitors of firefly luciferase expression or activity, dose response, H4 neuroglioma cells, luminescence (AID 1990); assay type: functional, cell-based
[24] = target: T1, Kappa-type opioid receptor; test: kappa opioid receptor blockers, cell-based, luminescence, beta-arrestin, SAR follow-up (AID 2285); assay type: functional
[25] = target: T4, Zinc finger protein mex-5 (Caenorhabditis elegans, UniProt Q9XUB2); test: MEX-5/TCR-2 RNA interaction inhibitors, dose response, biochemical, C. elegans, fluorescence polarization (AID 1960)
T4 sequence (Q9XUB2 whole entry): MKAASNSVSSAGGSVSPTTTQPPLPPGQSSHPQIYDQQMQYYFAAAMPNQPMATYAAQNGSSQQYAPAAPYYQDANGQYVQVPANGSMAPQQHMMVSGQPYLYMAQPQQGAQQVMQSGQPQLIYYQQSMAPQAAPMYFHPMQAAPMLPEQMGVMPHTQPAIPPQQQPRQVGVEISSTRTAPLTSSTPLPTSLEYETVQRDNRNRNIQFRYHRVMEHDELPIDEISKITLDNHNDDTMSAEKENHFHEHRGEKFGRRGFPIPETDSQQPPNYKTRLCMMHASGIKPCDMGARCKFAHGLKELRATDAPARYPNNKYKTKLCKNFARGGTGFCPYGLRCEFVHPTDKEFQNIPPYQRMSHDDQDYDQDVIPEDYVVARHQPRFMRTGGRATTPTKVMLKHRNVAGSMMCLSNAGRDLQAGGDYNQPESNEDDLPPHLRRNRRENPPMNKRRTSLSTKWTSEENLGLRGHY

Streptococcus = test: Group A Streptococcus viability loss, dose response, counter-screen for streptokinase expression inhibitor project, luminescence, BacTiterGlo (AID 1915); assay type: functional, organism-based;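 further: potency for reduction of bacterial viability or growth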
Streptokinase A = target: T5, Streptokinase A (Streptococcus pyogenes serotype M1, UniProt P10520); test: S. pyogenes streptokinase expression inhibitors, potency, dose response, plasminogen activation absorbance, OD405 (AID 1914); assay type: functional, Streptococcus pyogenes M1 GAS;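 further: secreted streptokinase activity via plasminogen activation per viability signal from cell pellet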
T5 sequence (P10520 whole entry): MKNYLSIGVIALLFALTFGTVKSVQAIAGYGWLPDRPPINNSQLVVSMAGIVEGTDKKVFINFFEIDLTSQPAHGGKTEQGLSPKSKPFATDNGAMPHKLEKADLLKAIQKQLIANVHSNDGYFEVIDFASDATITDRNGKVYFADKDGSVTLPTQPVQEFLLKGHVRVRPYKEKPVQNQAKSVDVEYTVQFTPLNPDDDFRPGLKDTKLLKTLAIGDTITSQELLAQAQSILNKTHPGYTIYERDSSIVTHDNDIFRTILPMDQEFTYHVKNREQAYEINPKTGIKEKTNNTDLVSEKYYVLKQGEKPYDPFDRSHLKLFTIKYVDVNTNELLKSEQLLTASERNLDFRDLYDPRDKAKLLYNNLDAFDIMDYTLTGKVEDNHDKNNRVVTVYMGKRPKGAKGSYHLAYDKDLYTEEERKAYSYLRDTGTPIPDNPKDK

[26] = target: Scavenger receptor class B member 1 (Mus musculus, UniProt Q61009); test: inhibitors of SR-BI mediated HDL lipid uptake, dose response, ldlA[mSR-BI] cells, fluorescence, cherry pick (AID 493194); assay type: functional, cell-based;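 further: cellular uptake of fluorescent DiI-labeled HDL measured as cell fluorescence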
Sequence of Scavenger receptor class B member 1 (Q61009 whole entry): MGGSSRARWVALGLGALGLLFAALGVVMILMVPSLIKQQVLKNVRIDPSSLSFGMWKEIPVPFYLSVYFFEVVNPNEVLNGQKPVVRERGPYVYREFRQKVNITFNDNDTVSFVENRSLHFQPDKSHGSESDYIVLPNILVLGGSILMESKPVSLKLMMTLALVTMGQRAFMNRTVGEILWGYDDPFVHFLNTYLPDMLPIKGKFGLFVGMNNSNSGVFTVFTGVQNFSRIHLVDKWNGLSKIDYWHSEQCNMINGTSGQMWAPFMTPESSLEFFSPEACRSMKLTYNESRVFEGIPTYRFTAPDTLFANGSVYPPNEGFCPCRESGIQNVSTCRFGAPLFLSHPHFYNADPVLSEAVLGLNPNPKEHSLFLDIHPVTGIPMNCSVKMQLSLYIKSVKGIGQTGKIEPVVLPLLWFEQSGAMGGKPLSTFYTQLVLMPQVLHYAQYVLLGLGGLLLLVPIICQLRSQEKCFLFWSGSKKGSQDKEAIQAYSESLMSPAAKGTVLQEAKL

[27] = target: Peroxisome proliferator-activated receptor gamma/Nuclear receptor coactivator 3 (Homo sapiens, UniProt P37231); assay type: functional;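 further: agonist potency for raising coactivator recruitment to the receptor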
[28] = target: Peroxisome proliferator-activated receptor gamma/Nuclear receptor coactivator 2 (Homo sapiens, UniProt P37231); assay type: functional;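 further: agonist potency for raising coactivator recruitment to the receptor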
[29] = system: Streptococcus sp. 'group A'; test: growth inhibition of control SK(-) GAS strain, dose response, counter-screen for streptokinase expression inhibitor project, luminescence, kanamycin, BacTiterGlo, confirmation (AID 1900); assay type: functional, organism-based
[30] = target: T6, RNA-binding protein pos-1 (Caenorhabditis elegans, UniProt G5EF15); test: inhibitors of POS-1/mex-3 RNA binding, dose response, biochemical, fluorescence polarization (AID 1964);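 further: purified POS-1 fused to maltose binding protein made in E. coli; potency of compounds blocking POS-1 binding to fluorescent RNA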
T6 sequence (G5EF15 whole entry): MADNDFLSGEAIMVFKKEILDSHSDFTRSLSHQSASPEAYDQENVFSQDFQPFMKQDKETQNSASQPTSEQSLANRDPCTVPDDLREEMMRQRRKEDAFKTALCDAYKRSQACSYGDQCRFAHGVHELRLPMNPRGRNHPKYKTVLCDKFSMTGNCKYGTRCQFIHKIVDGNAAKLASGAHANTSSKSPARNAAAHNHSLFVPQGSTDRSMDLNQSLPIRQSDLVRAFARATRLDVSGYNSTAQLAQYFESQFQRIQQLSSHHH

[31] = target: Peroxisome proliferator-activated receptor gamma/Nuclear receptor coactivator 1 (Homo sapiens, UniProt P37231); assay type: functional;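 further: agonist potency as compounds enhance coactivator SRC-1 recruitment to PPARgamma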
[32] = target: Acyl-homoserine lactone acylase PvdQ (Pseudomonas aeruginosa (strain LESB58), UniProt Q9I194); test: P. aeruginosa PvdQ acylase inhibitors, dose response, biochemical, fluorescence, plate reader and imaging, cherry-picks (AID 493231)
Sequence of Acyl-homoserine lactone acylase PvdQ (Q9I194 24-193 limits assumed): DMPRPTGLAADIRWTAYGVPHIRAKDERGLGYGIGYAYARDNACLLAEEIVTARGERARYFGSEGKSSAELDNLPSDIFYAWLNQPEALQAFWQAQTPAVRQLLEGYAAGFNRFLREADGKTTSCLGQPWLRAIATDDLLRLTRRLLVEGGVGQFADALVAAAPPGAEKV
Sequence of Acyl-homoserine lactone acylase PvdQ (Q9I194 217-762 limits assumed): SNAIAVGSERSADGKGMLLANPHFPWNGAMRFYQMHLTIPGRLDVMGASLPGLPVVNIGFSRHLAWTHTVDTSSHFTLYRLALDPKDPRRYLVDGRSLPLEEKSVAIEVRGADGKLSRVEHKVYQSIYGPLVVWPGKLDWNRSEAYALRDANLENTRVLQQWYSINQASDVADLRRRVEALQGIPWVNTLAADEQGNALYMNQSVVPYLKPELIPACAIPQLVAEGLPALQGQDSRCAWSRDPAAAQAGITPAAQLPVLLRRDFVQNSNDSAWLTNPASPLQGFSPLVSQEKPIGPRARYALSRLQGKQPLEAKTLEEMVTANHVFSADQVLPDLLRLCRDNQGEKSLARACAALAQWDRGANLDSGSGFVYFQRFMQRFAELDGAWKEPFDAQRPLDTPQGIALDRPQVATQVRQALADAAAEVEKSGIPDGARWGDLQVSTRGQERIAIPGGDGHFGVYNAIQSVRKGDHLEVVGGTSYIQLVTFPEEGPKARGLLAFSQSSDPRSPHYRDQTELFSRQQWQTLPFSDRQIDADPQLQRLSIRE

Sequence of Estrogen receptor beta (Q92731 whole entry): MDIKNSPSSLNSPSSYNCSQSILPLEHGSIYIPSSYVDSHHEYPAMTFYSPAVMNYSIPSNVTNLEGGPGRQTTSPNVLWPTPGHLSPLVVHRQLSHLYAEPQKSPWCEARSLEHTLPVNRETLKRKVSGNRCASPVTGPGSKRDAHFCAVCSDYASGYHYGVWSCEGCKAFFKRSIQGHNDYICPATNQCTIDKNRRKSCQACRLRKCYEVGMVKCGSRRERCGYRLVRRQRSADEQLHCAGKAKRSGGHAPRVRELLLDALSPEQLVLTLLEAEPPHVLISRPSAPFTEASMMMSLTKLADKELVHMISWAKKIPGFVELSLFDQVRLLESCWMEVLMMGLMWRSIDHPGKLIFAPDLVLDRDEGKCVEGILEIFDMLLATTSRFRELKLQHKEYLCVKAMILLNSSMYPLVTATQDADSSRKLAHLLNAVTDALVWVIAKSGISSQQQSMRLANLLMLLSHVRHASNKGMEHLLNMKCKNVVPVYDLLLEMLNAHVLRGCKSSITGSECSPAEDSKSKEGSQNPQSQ

Structure (SMILES): C/C=C/COC(=O)c1[nH]c2c(c1C)C(=O)CC(c1ccco1)C2 (configuration not stated)
- IC50 (Estrogen receptor beta): > 50 µM (not active)
- EC50 (BJ [1]): 4.74 µM (inconclusive)
- EC50 [2]: 2.76 µM (active)
- EC50 (BJ [3]): 2.76 µM (active)
- IC50 [4]: 45.8 µM (active)
- IC50 [5]: 21.7 µM (active)
- EC50 (BJ [6]): 2.84 µM (inconclusive)
- IC50 (Estrogen receptor): 24.7 µM (active)
- IC50 [7]: > 80 µM (inactive)

Structure (SMILES): COc1ccc(CN(CC2CCCO2)C(=O)CN2C(=O)COc3ccccc32)cc1OC (configuration not stated)
- EC50 [8]: 4.88 µM (active)
- EC50 [9]: > 32 µM (inactive)
- IC50 [10]: > 32 µM (inactive)
- EC50 [11]: > 32 µM (inactive)
- IC50 (Mu-type opioid receptor [12]): > 32 µM (inactive)
- IC50 [13]: > 32 µM (inactive)
- IC50 [14]: > 32 µM (inactive)
- EC50 [15]: > 10 µM (inactive)
- pEC50 [16]: 4.96
- EC50 (Mu-type opioid receptor [17]): > 32 µM (inactive)
- EC50 (Mu-type opioid receptor [18]): > 32 µM (inactive)
- pEC50 [19]: 4.94

Structure (SMILES): Cc1ccc(C(=O)NNC(=O)CCCN2C(=O)/C(=C/c3ccccc3Cl)SC2=S)cc1
- EC50 [20]: > 120 µM (not active)
- EC50 [21]: 14 µM (active)
- IC50 [22]: > 80 µM (inactive)
- EC50 [23]: 10.8 µM (active)

Structure (SMILES): Oc1c(C=Nc2cccc3cccnc23)sc2ccccc12
- EC50 [8]: > 32 µM (inactive)
- EC50 [9]: > 32 µM (inactive)
- IC50 (Mu-type opioid receptor [12]): 0.897 µM (active)
- IC50 [13]: 1.01 µM (active)
- IC50 [14]: 0.533 µM (active)
- IC50 [24]: 8.77 µM (active)
- EC50 (Mu-type opioid receptor [18]): > 32 µM (inactive)

Structure (SMILES): Cc1cc(C)c2c(c1)NC(c1cc3c(cc1Br)OCO3)C1CC=CC21 (configuration not stated)
- EC50 [25]: > 300 µM (not active)
- EC50 (Streptococcus): 114 µM (active)
- EC50 (Streptokinase A): > 150 µM (not active)
- AC50 [26]: 19 µM (active)
- EC50 [27]: > 79.4 µM (not active)
- EC50 [28]: > 79.4 µM (not active)
- EC50 [29]: 5.11 µM (active)
- EC50 [30]: > 300 µM (not active)
- EC50 [31]: > 79.4 µM (not active)

Structure (SMILES): O=[N+]([O-])c1ccc(Sc2ccccc2Cl)nc1
- AC50 [32]: 33.2 µM (active)
